From patent US20250382344A1, “Soluble GLP1/GIP/NPY2 Receptor Triple Agonists” (Boehringer Ingelheim International GmH, priority 2024, published 2025)
Like-named read-outs stand apart in the source and are kept apart here.

Columns and labels:
[1] = Solubility in 0.1 M phosphate buffer at pH 7; type: physicochemical; settings: 0.1 M phosphate buffer at pH 7, 10 mg/mL final peptide concentration, shaking 2 hours at room temperature, peptides as TFA-salts; measured sample pH 6.5-7.0
hGIPR = target: T1, hGIPR (Homo sapiens, UniProt P48546); experiment: hGIPR CreLuc assay in 0.5% and 100% plasma (CHO CRE-luciferase reporter cells); type: cell-based; settings: 0.5% human plasma, read-out: hGIPR 0.5% hP
T1 construct: expressed in transfected cells; host or cells: CHO CRE-luciferase reporter cells
T1 sequence (P48546 22-466): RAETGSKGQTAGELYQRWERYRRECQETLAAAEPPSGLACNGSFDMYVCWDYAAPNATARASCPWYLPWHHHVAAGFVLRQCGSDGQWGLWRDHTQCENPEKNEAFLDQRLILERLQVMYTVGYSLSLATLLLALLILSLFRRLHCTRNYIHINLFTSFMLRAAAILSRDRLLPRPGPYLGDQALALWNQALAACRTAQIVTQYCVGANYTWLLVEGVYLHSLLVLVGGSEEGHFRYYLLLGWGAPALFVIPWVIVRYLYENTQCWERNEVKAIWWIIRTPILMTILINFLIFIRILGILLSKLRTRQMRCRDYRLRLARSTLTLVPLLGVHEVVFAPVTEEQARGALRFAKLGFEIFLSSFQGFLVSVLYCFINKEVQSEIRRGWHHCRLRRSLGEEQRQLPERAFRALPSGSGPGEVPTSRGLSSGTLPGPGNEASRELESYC

hGLP1R = target: T2, hGLP1R (Homo sapiens, UniProt P43220); experiment: hGLP1R CreLuc assay in 0.5% and 100% plasma (HEK-293 CRE-luciferase reporter cells); type: cell-based; settings: 0.5% human plasma, HEK-293 reporter cells
T2 construct: expressed in transfected cells; host or cells: HEK-293 CRE-luciferase reporter cells
Source text: CHO and HEK-293 recombinant cell lines express a luciferase reporter gene under control of the CAMP responsive element (CRE). As a second recombinant protein the GLP-1 and NPY2 receptors were expressed in the reporter gene HEK cells, and the GIP receptor was expressed in the reporter gene CHO cells, respectively. Stimulation of these recombinant cells with an agonist leads to an increase of intracellular CAMP levels. In the presence of CAMP, the transcription factor CRE binding protein (CREB) binds to the CRE and to the CREB binding protein (CBP), which leads to transcription of the luciferase reporter gene. Peptides upon serial-dilution in 100% DMSO were transferred into 384-well assay plates with 5 μl pre-dispensed assay buffer (1×HBSS, 20 mM HEPES, pH7.4 supplemented with 0.5% human plasma) using acoustic dispensing on a Labcyte ECHO. Cryo-preserved transgenic reporter gene cells were thawed in assay buffer. 20 μl (10.000 cells/well) were added to the plate with the peptides and incubated for 4 hours at 37° C. in a humidified incubator. Following incubation, assay plates are equilibrated to room temperature, followed by addition of 25 μl of Bright-Glo™ Luciferase reagent, incubation at room temperature for 10 minutes and analysis of luminescence (Envision Reader). […] EC50 values were calculated by non-linear regression using sigmoid concentration-response with variable slope.
The same assays were run in the presence of 100% plasma with no additional buffer constituents.

T2 sequence (P43220 24-463): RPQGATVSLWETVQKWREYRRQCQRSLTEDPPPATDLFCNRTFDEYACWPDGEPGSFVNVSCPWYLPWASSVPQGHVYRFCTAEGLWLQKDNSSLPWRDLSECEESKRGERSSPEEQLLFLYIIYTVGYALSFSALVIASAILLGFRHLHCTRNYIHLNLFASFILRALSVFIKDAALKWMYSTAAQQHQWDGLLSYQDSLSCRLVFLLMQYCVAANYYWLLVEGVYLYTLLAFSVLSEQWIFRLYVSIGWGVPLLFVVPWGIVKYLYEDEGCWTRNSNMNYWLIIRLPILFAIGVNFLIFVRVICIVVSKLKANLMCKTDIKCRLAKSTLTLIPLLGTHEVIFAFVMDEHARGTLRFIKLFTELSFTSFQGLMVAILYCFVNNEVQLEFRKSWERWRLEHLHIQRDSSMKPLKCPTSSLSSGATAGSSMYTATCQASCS

SMILES | solubility at 2 h [1] | EC50 (hGIPR) | EC50 (hGLP1R; read-out: hGLP1R 0.5% hP) | EC50 (hGLP1R; hGLP1R 0.5% hP (nM))
CC[C@H](C)[C@H](NC(=O)[C@H](CC(C)C)NC(=O)[C@H](Cc1c[nH]cn1)NC(=O)[C@H](CCCNC(=N)N)NC(=O)[C@@H](NC(=O)[C@H](Cc1ccccc1)NC(=O)[C@H](C)NC(=O)C(C)(C)NC(=O)[C@H](CCC(N)=O)NC(=O)[C@H](C)NC(=O)[C@H](CCC(N)=O)NC(=O)[C@H](CCCCN)NC(=O)[C@H](CCC(=O)O)NC(=O)[C@H](CC(C)C)NC(=O)C(C)(C)NC(=O)[C@@H](NC(=O)[C@H](CO)NC(=O)[C@H](Cc1ccc(O)cc1)NC(=O)[C@H](CC(=O)O)NC(=O)[C@H](CO)NC(=O)[C@@H](NC(=O)[C@H](Cc1ccccc1)NC(=O)[C@@H](NC(=O)CNC(=O)[C@H](CCC(=O)O)NC(=O)C(C)(C)NC(=O)[C@@H](N)Cc1ccc(O)cc1)[C@@H](C)O)[C@@H](C)O)[C@@H](C)CC)C(C)C)C(=O)N[C@@H](CC(N)=O)C(=O)N[C@@H](CCCCNC(=O)CC[C@H](NC(=O)CC[C@H](NC(=O)CC[C@H](NC(=O)CC[C@H](NC(=O)CC[C@H](NC(=O)CC[C@H](NC(=O)CCCCCCCCCCCCCCCCC(=O)O)C(=O)O)C(=O)O)C(=O)O)C(=O)O)C(=O)O)C(=O)O)C(=O)NC(C)(C)C(=O)N[C@H](C(=O)N[C@@H](CCCNC(=N)N)C(=O)N(C)[C@@H](CCC(N)=O)C(=O)N[C@@H](CCCNC(=N)N)C(=O)N[C@@H](Cc1ccc(O)cc1)C(N)=O)[C@@H](C)O [Compound 2, Y-Aib-E-G-T-F-T-S-D-Y-S-I-Aib-L-E-K-Q-A-Q-Aib-A-F-V-R-H-L-I-N-K(1,3)-Aib-T-R-NMeQ-R-Y-NH2.C18DA-gGlu-gGlu-gGlu-gGlu-gGlu-gGlu(1,2)] | 5000 µg/mL | 0.4 nM | 0.8 nM | –
CC[C@H](C)[C@H](NC(=O)[C@H](CC(C)C)NC(=O)[C@H](Cc1c[nH]cn1)NC(=O)[C@H](CCCNC(=N)N)NC(=O)[C@@H](NC(=O)[C@H](Cc1ccccc1)NC(=O)[C@H](C)NC(=O)C(C)(C)NC(=O)[C@H](CCC(N)=O)NC(=O)[C@H](C)NC(=O)[C@H](CCC(N)=O)NC(=O)[C@H](CCCCN)NC(=O)[C@H](CCC(=O)O)NC(=O)[C@H](CC(C)C)NC(=O)C(C)(C)NC(=O)[C@@H](NC(=O)[C@H](CO)NC(=O)[C@H](Cc1ccc(O)cc1)NC(=O)[C@H](CC(=O)O)NC(=O)[C@H](CO)NC(=O)[C@@H](NC(=O)[C@H](Cc1ccccc1)NC(=O)[C@@H](NC(=O)CNC(=O)[C@H](CCC(=O)O)NC(=O)C(C)(C)NC(=O)[C@@H](N)Cc1ccc(O)cc1)[C@@H](C)O)[C@@H](C)O)[C@@H](C)CC)C(C)C)C(=O)N[C@@H](CC(N)=O)C(=O)N[C@@H](CCCCNC(=O)COCCOCCNC(=O)CC[C@H](NC(=O)CC[C@H](NC(=O)CC[C@H](NC(=O)CC[C@H](NC(=O)CC[C@H](NC(=O)CCCCCCCCCCCCCCCCC(=O)O)C(=O)O)C(=O)O)C(=O)O)C(=O)O)C(=O)O)C(=O)N[C@@H](CC(C)C)C(=O)N[C@H](C(=O)N[C@@H](CCCNC(=N)N)C(=O)N[C@@H](CCC(N)=O)C(=O)N[C@@H](CCCNC(=N)N)C(=O)N[C@@H](Cc1ccc(O)cc1)C(N)=O)[C@@H](C)O [Compound 7, Y-Aib-E-G-T-F-T-S-D-Y-S-I-Aib-L-E-K-Q-A-Q-Aib-A-F-V-R-H-L-I-N-K(1,3)-L-T-R-Q-R-Y-NH2.C18DA-gGlu-gGlu-gGlu-gGlu-gGlu-OEG(1,2)] | 4500 µg/mL | 0.4 nM | 0.7 nM | –
CC[C@H](C)[C@H](NC(=O)[C@H](CC(C)C)NC(=O)[C@H](Cc1c[nH]cn1)NC(=O)[C@H](CCCNC(=N)N)NC(=O)[C@@H](NC(=O)[C@H](Cc1ccccc1)NC(=O)[C@H](C)NC(=O)C(C)(C)NC(=O)[C@H](CCC(N)=O)NC(=O)[C@H](C)NC(=O)[C@H](CCC(N)=O)NC(=O)[C@H](CCCCN)NC(=O)[C@H](CCC(=O)O)NC(=O)[C@H](CC(C)C)NC(=O)C(C)(C)NC(=O)[C@@H](NC(=O)[C@H](CO)NC(=O)[C@H](Cc1ccc(O)cc1)NC(=O)[C@H](CC(=O)O)NC(=O)[C@H](CO)NC(=O)[C@@H](NC(=O)[C@H](Cc1ccccc1)NC(=O)[C@H](CCC(=O)O)NC(=O)CNC(=O)[C@H](CCC(=O)O)NC(=O)C(C)(C)NC(=O)[C@@H](N)Cc1ccc(O)cc1)[C@@H](C)O)[C@@H](C)CC)C(C)C)C(=O)N[C@@H](CC(N)=O)C(=O)N[C@@H](CCCCNC(=O)[C@@H](N)CCCCNC(=O)CC[C@H](NC(=O)CC[C@H](NC(=O)CC[C@H](NC(=O)CC[C@H](NC(=O)CC[C@H](NC(=O)CC[C@H](NC(=O)CCCCCCCCCCCCCCCCC(=O)O)C(=O)O)C(=O)O)C(=O)O)C(=O)O)C(=O)O)C(=O)O)C(=O)NC(C)(C)C(=O)N[C@H](C(=O)N[C@@H](CCCNC(=N)N)C(=O)N[C@@H](CCC(N)=O)C(=O)N[C@@H](CCCNC(=N)N)C(=O)N[C@@H](Cc1ccc(O)cc1)C(N)=O)[C@@H](C)O [Compound 54, Y-Aib-E-G-E-F-T-S-D-Y-S-I-Aib-L-E-K-Q-A-Q-Aib-A-F-V-R-H-L-I-N-K(1,3)-Aib-T-R-Q-R-Y-NH2.C18DA-gGlu-gGlu-gGlu-gGlu-gGlu-gGlu-eLys(1,2)] | 9600 µg/mL | – | 3.4 nM | –
CC[C@H](C)[C@H](NC(=O)[C@H](CO)NC(=O)[C@H](CC(C)C)NC(=O)[C@H](CC(=O)O)NC(=O)[C@H](CO)NC(=O)[C@@H](NC(=O)[C@H](Cc1ccccc1)NC(=O)[C@@H](NC(=O)CNC(=O)[C@H](CCC(=O)O)NC(=O)C(C)(C)NC(=O)[C@@H](N)Cc1ccc(O)cc1)[C@@H](C)O)[C@@H](C)O)C(=O)NC(C)(C)C(=O)N[C@@H](CC(C)C)C(=O)N[C@@H](CCC(=O)O)C(=O)N[C@@H](CCCCN)C(=O)N[C@@H](CCC(N)=O)C(=O)N[C@@H](C)C(=O)N[C@@H](CCC(N)=O)C(=O)NC(C)(C)C(=O)N[C@@H](C)C(=O)N[C@@H](Cc1ccccc1)C(=O)N[C@H](C(=O)N[C@@H](CCCNC(=N)N)C(=O)N[C@@H](Cc1c[nH]cn1)C(=O)N[C@@H](CC(C)C)C(=O)N[C@@H](CC(C)C)C(=O)N[C@@H](CC(N)=O)C(=O)N[C@@H](CCCCNC(=O)[C@@H](N)CCCCNC(=O)CC[C@H](NC(=O)CC[C@H](NC(=O)CC[C@H](NC(=O)CC[C@H](NC(=O)CC[C@H](NC(=O)CC[C@H](NC(=O)CCCCCCCCCCCCCCCCCCC(=O)O)C(=O)O)C(=O)O)C(=O)O)C(=O)O)C(=O)O)C(=O)O)C(=O)NC(C)(C)C(=O)N[C@H](C(=O)N[C@@H](CCCNC(=N)N)C(=O)N[C@@H](CCC(N)=O)C(=O)N[C@@H](CCCNC(=N)N)C(=O)N[C@@H](Cc1ccc(O)cc1)C(N)=O)[C@@H](C)O)C(C)C [Compound 115, Y-Aib-E-G-T-F-T-S-D-L-S-I-Aib-L-E-K-Q-A-Q-Aib-A-F-V-R-H-L-L-N-K(1,3)-Aib-T-R-Q-R-Y-NH2.C20DA-gGlu-gGlu-gGlu-gGlu-gGlu-gGlu-eLys(1,2)] | 8200 µg/mL | – | – | 7 nM
